Patent US7384657B2, “Composition of natural herb extract for treating cardiovascular disease and its method of preparation thereof” (priority 2004, dated 2008)
“Also recorded” adds a separate entry of the source. Read-outs that look alike come from different tables or passages of the source.

Key:
[1] = pharmacokinetics of Danshensu after auricular vein injection; format: in vivo, rabbits; conditions: 30 mg/kg i.v.
Experimental: Pharmacokinetics of Danshenu in the biological body is studied. After the selected 5 rabbits' auricular veins are injected with Danshensu (injection of 30 mg/kg), blood is drawn regularly every 15, 30, 60, 90, 120 and 150 minutes. Obtain blood plasma and manipulate like before. Determine concentration of the blood medication. Use blank plasma for controlling. According to the mean from the experimental data, with the use of the logarithm and time of Danshensu concentration, create chart which is a straight line.

[2] = pituitary myocardial ischemia in rats, electrocardiac abnormality; format: in vivo
Description: (§1) The properties of Danshensu are studied.

[3] = toleration time in anoxic state in mice; format: in vivo
Description: as §1

[4] = test system: isolated pig's coronary artery; assay: isolated pig's coronary artery perfusion (modified Oglatree preparation)
Description: as §1
Effect of Danshensu [β-(3,4)-dihydroxyphenyl lactic acid] upon the isolated pig's coronary artery is studied. […] The method, which is different from the method of Oglatree isolated coronary artery preparation, is to have both ends of the isolated pig's coronary artery segment ligated to the perfusion cannula.
Test the same specimen by successively giving it 3 crescendo doses of morphine hydrochloride. Record the largest titer of P after each administration. Using Krbs-Henselait liquid to douche the perfusion system 3 times. When the basic line returns to normal, the effect is very obvious after the application of Danshensu (causing the medical concentration in the perfusion system turning into […]). Repeatedly administrate the same 3 crescendo doses of morphine hydrochloride successively like above. Observe the effect of Danshensu on the systole of coronary artery caused by morphine. Again, after the above-mentioned doses of Danshensu are applied, administrate repeatedly 4 crescendo doses of hydrochloric propanol. Observe the effect of Danshensu on the coronary artery systole caused by propanol. The sequence of administration resembles the above. In addition, after the application of Danshensu, repeat the administration by giving 3 crescendo doses of KCI and 3 crescendo doses of reserpine. […]

[5] = dog model having myocardial infarction; format: in vivo
Description: as §1

[6] = test system: isolated heart; assay: isolated heart: coronary blood flow, fibrinolysis
Description: as §1

[7] = internal distribution of Danshensu by HPLC after intravenous Danshen preparation; format: in vivo, domestic rabbit; conditions: after i.v. Danshen preparation
Experimental: HPLC is used to study the domestic rabbit's internal distribution and content of the Chinese Danshen preparation's Danshensu. […] Adrenal tissue's average is 14.15 μg/g (+0.33), liver's tissue average 17.69 μg/g (+4.44), lung's tissue average 19.73 μg/g (+4.00), heart's tissue average 12.30 μg/g (+2.18), brain's tissue average 5.45 μg/g (+0.60) and spleen's tissue average 4.66 μg/g (+0.68).

[8] = test system: β-receptor; assay: radioactive ligand analysis on myocardial membrane; format: binding, rats
Description: (§2) The effecter of β-receptor is the adenylate cyclase (AC). Excitant of the β-receptor can enable the AC to activate and the antagonist can cause it to inhibit. […] It points out puerarin is an antagonist of one type of β-receptors. It has the selective action on the heart's β-receptor. It can achieve various curative effects on the arrhythmia.

[9] = arrhythmia caused by chloroform and the adrenal gland; format: in vivo, domestic rabbit
Description: The effect of puerarin on the rhythm of heart is examined. […] Obviously, it also […] the mean of ventricular premature heartbeat and ventricular tachycardia caused by ouabin.

[10] = test system: artery's endothelial cell; assay: arterial endothelial cell culture; format: cell-based; conditions: puerarin 250 μg/ml, 6 hours, 36° C.
Experimental: The effect of puerarin on the arterial endothelial cell is also examined. Puerarin has very outstanding effect on the artery's endothelial cell. Add puerarin (250 μg/ml) to the cellular fluid, but no addition of puerarin in the control group. After 6 hours of culture at 36° C., determine the content of carboxylic proline in both the internal and the external fluid of the endothelial cells respectively. […] The content of carboxylic proline, in the […], drops to Experiment Group's 2.70±0.06 μg/ml and 2.43±0.21 μg/ml from 3.35±0.05 μg/ml and 2.68±0.15 μg/ml in the Control group's internal and external endothelial cells. With regards to osamine polysaccharide, it drops to Experiment Group's 0.95±0.12 μg/ml and 0.68±0.15 μg/ml from 1.77±0.12 μg/m and 1.57±0.08 μg/ml in the internal fluid of Control group. […] It regulates the permeability of the water solubility and the substance of plasma molecule. Besides having an effect on the selective barrier action, its complex enzyme system can synthesize and secrete many active substances such as PGI2.

[11] = puerarin: patient's blood 6-K-PGF1a, HDL, TXB2; format: in vivo, human; conditions: patients
Description: Puerarin can even heighten the patient's blood 6-K-PGF1a [6-acetone-PGF1a (prostaglandin-stable metabolism product)] and High Density Lipid (HDL) level. […] As a result, it enables the coronary artery and the peripheral blood vessel to expand, and therefore, it resists angina pectoris, reduces blood pressure, lowers myocardial oxygen consumption and improves the Ischemic ECG and etc.

[12] = absorption, distribution and excretion of puerarin in rats; format: in vivo
Description: The pharmacokinetics of puerarin is also studied. Absorption and distribution of medication of Puerarin are studied. […] External experiment proves puerarin's destruction in the enterogastric tract is very minor, but can be metabolized by the tissue of blood, liver, kidney and etc. It is also able to integrate with the liver, kidney, lung and plasma protein. Pharmacokinetics parameter of the rats's intravenous injection indicates puerarin's distribution in the body is vast and clears up fast. It is not easy to store.
(§3) Metabolism of medication of Puerarin is studied. 24 hours after the rats taken puerarin orally, 1.85% and 35.7% excreted as urine and stool. After the intravenous injection, 37.62%, 7.39% and 3.65% are secreted from the urine, stool and bile respectively. Absorption, by orally taking, is very little. 36 hours after puerarin is orally taken by normal person, only 0.78% […] secrete from the urine; 72 hours after the oral taking, 73.3% secrete from the stool.

[13] = test system: adenylate cyclase; assay: activation of dissolved adenylate cyclase; format: biochemical
Description: as §2

[14] = mice and dog; cited from earlier work
[15] = teratogenicity and mutagenicity in pregnant animals and male germ cells; format: in vivo, rats; conditions: 50 and 150 mg/kg
Experimental: Select 50 pregnant rats. Observe and analyze 450 pregnant mice. Choose 50 and 150 mg/kg as puerarin dosage. […] The deformation of appearance, organ or bone is not found in all the examined fetal mice. It proves neither the puerarin nor the solvent has mutagenic activity on the pregnant mice.

[16] = puerarin in dog with acute myocardial ischemia / coronary blockage; format: in vivo
Experimental: Effect of Puerarin upon the heart is studied. The main effect of Puerarin Pur is to change the myocardial ischemia. Apply intervenous injection of puerarin to the dog which contracts the acute myocardial ischemia. […] After the aortic pressure is adjusted to the level of pre-administration, tension-time index and the rising speed of left ventricular pressure also return to the level of pre-administration.
5 minutes after the midpoint of the anterior branch of the dog's coronary artery encountering acute blockage, intravenous injection of puerarin 20 mg/kg is administrated. […] The function lasts 3˜4 hours. It has no effect on LVSD. 15 minutes after the administration, the ST drops obviously. […] Electrocardiographic index reduces clearly and the pulmonary incarceration has not risen.

[17] = test system: polychromatic erythrocytes; assay: polychromatic erythrocytes micronucleus; format: in vivo; conditions: every dosage group
[18] = single intravenous injection 5 mg/kg; cited from earlier work
[19] = puerarin drops in patients of acute myocardial infarction; format: in vivo, human
[20] = test system: TA97, TA98, TA100 and TA102; assay: Ames test; format: cell-based, typhoid Salmonella bacillus; conditions: 1, 5, 50, 500, 5000 μg per dish, S9 and non-S9
Experimental: Use TA97, TA98, TA100 and TA102 as testing strain; puerarin 1, 5, 50, 500, and 5000 μg as dish. In the experiment of S9 and non-S9, its reverse colonial mutation setting figure is basically the same, that is, mutation rate (MR)<2. It has no dosage-response relation. […] Use human microblood nutrient for culturing. Add human blood to the puerarin injection. Under the condition of isolated body, add S9 activation system, then, culture for 53 hours. […] Therefore, hereditary toxicity has not been indicated.

[21] = excretion of oral puerarin in normal person; format: in vivo, human
Experimental: as §3

Molecule: O=C(O)[C@H](O)Cc1ccc(O)c(O)c1 [Danshensu, D(+) β-(3,4-dihydroxyphenyl) lactic acid]
- pharmacokinetic model [1]: single ventricular model
- half-life ([1]; rabbit, in vivo, iv, 5 rabbits, read-out: biological half-life t1/2): 16.6 min
- electrocardiac abnormality of pituitary myocardial ischemia [2]: restore the electrocardiac abnormality
- toleration time in anoxic state [3]: prolong the toleration time in anoxic state
- P ([4]; Danshensu 1×10^6 g/ml in perfusion system, 31 strips, 40 experiments): -2.54±0.48 mmHg
- dilatation of coronary artery smooth muscle ([4]; isolated pig coronary artery): dilate the smooth muscle of coronary artery; also recorded: obvious dilatation effect
- area suffered from myocardial infarction [5]: the area suffered from myocardial infarction is reduced
- heart function [5]: the heart function is improved
- fibrinolysis [6]: relatively weaker function in fibrinolysis
- blood flow of coronary artery ([6]; isolated heart): increasing the blood flow of coronary artery
- Danshensu content, adrenal tissue average [7]: 14.15 µg/g
- Danshensu content, brain tissue average [7]: 5.45 µg/g
- Danshensu content, heart tissue average [7]: 12.30 µg/g
- Danshensu content, liver tissue average [7]: 17.69 µg/g
- Danshensu content, lung tissue average [7]: 19.73 µg/g
- Danshensu content, spleen tissue average [7]: 4.66 µg/g

Molecule: Puerarin
- competition with the labeled ligand ([8]; conjugated competition): able to compete with the labeled ligand
- maximum combination capacity of the β-receptor ([8]; rats's myocardial membrane): clearly reduce the maximum combination capacity
- arrhythmic time [9]: shorten the arrhythmic time
- carboxylic proline, external fluid of endothelial cells [10]: 2.43 ± 0.21 µg/mL
- carboxylic proline, internal fluid of endothelial cells [10]: 2.70 ± 0.06 µg/mL
- osamine polysaccharide, first value (internal fluid) [10]: 0.95 ± 0.12 µg/mL
- osamine polysaccharide, second value [10]: 0.68 ± 0.15 µg/mL
- blood 6-K-PGF1a and High Density Lipid (HDL) level [11]: heighten
- ratio of TXB2/6-K-PGF1a [11]: reduces the ratio
- secreted from the bile ([12]; intravenous injection): 3.65%
- secreted from the stool ([12]; intravenous injection): 7.39%
- secreted from the urine ([12]; intravenous injection): 37.62%
- tissue content ([12]; intravenous injection): the content in kidney is highest, blood plasma takes second place and the brain has lesser
- oral absorption ([12]; oral): absorbed faster but not complete
- excreted as stool ([12]; oral, 24 hours): 35.7%
- excreted as urine ([12]; oral, 24 hours): 1.85%
- medication volume retrieved from gastrointestinal substance and stool ([12]; oral, after 24 hours): 37.3 % of the volume administrated
- adrenal gland's activation of dissolved adenylate cyclase [13]: completely inhibit
- pharmacokinetic model [14]: 3-ventricle open model
- deformation of appearance, organ or bone of fetal mice [15]: not found
- survival fetal number, absorption fetal number, weight, length, tail length versus control [15]: no obvious difference
- lowering of LVSD ([16]; 20 mg/kg i.v., 5 minutes after blockage): 10.14%
- myocardial infarction scope (N-BT) ([16]; 20 mg/kg i.v., 6 hours later): reduces significantly
- aortic pressure ([16]; intravenous injection): lower the aortic pressure
- release of myocardial CPK ([16]; ischemia and reperfusion): lowers the release of myocardial CPK
- occurrence rate of polychromatic erythrocytes micronucleus versus negative contrast [17]: no obvious difference
- pharmacokinetic model [18]: 2-ventricle open model
- myocardial index ([19]; 30 minutes and 2 hours after (p<0.01, P=0.05)): clearly reduces
- genesis rate of infarction expansion ([19]; human, in vivo): obviously lowers
- mutation rate (MR) [20]: < 2
- secreted from the urine ([21]; 36 hours): 0.78%
- secreted from the stool ([21]; 72 hours): 73.3%
